Here are results for 1 molecule from patent EP1283052A1, “Pharmaceutical composition containing caspase-8 and /or caspase-9 useful for overcoming glucocorticoid- and cancer therapy-induced apoptosis of tumours” (Deutsches Krebsforschungszentrum Stiftung des öffentlichen …, priority 2001, dated 2003).

One assay concerns caspase-9 and -6. Kind of assay: Fluorometric caspase-6/9 activity assay in P693 cells. The format is cell-based, human. Conditions: cisplatin 2 µg/ml alone, Fig. 5a. The protocol:
• (a) P693 and CEM cells were treated with cisplatin (2 µg/ml) in the absence or presence of DEX (1 µM) as indicated. 24 and 48 h following treatment cells were lysed and caspase-9 activity was determined using a fluorescent caspase-9 assay and spectroscopy. • (b) P5 and CEM cells were treated as described above. 24 h after stimulation Apaf-1 was immunoprecipitated from the cell extracts using a […]. Aliquotes of the precipitates were separated by three different gels and analysed by Western blotting using rabbit polyclonal Apaf-1, mAb cytochrome c or caspase-9 antibodies. The antibody heavy chain band (IgGH) ensures equal conditions. […]
• (A) Cell culture. […] The mice were given 0.28 mg/L DEX in drinking water, and the amount of water consumed was monitored. […] The tumour volumes were measured using callipers, and calculated using, as an approximation, the formula for volume of a hemi-ellipsoid: π(width^2 x length)/6. […] Early apoptotic changes were identified by staining of cells with fluoresceinthiocyanate (FITC)-conjugated annexin V and propidium iodide (Becton Dickinson, Heidelberg, Germany) and analysed by flow cytometry (FACScan, Becton Dickinson) as described (Herr et al., EMBO J. 16 (1997), 6200-6208) • (E) Immunohistochemistry. […] Bound antibodies were detected by FITC conjugated anti-mouse or anti-rabbit IgG (Molecular Probes Europe, Leiden, The Netherlands). […]

Another assay relates to caspase-9. In words: Caspase-9 expression in leukemic T cells. Format: cell-based, human. The settings on record: cisplatin, data not shown.

For the molecule `N.N.[Cl][Pt][Cl]` [cisplatin], the caspase-6/9 activity result in the assay with caspase-9 and -6 is “induced 24 h following cisplatin in P693 and CEM cells with increasing activity at 48 h”. In addition, in the assay on caspase-9, the “expression of caspase-9” value was “neither induced”.
